Measured values reported in publication PMC11096368, “Transcriptomic signature, bioactivity and safety of a non-hepatotoxic analgesic generating AM404 in the midbrain PAG region” (Scientific Reports, 2024).
Like-named read-outs stand apart in the source and are kept apart here.

Legend:
[1] = LC–MS/MS detection of D10-SRP-001 and AM404 in the periaqueductal gray (PAG); format: in vivo, rats; details: 32 mg/kg ip, 30 min post-injection, rats with CFA or vehicle
Procedure: Next, we sought to define the uptake of SRP-001 in the nociception area of the brain, the midbrain’s periaqueductal (PAG) area[42],[43]. Thirty min following ip-SRP-001 administration (32 mg/kg), the PAG was harvested and analyzed by LC/MS–MS. D10-SRP-001 was used to match the fragmentation pattern while monitoring analytes.
Deuterated compound D10-SRP-001 was synthesized by Olon Ricerca Bioscience (Concord, OH), and purity was determined to be > 99.9% by HPLC. This was used as pure analytical standard for detection of SRP-001 using an LC–MS/MS method. Similarly, pure analytical standard of AM404 (10 ng/mL) obtained from Cayman Chemical (Ann Arbor, MI) was used to characterize the full fragmentation pattern of AM404. […] Thirty min post-injection, the animals were sacrificed (same as in the CFA/von Frey model), their brains harvested, and the midbrain periaqueductal gray (PAG) region excised. SRP-001 or AM404 were extracted from the PAG using a liquid–liquid extraction method using 1:1 MeOH:H2O for LC–MS/MS and were loaded onto a liquid chromatography-tandem mass spectrophotometer for analysis. The mass spectrophotometer was operated in multiple reaction monitoring (MRM) mode using positive ion electrospray. D10-SRP-001 was detected by monitoring the m/z transition 416 → 186. AM404 was detected by monitoring the m/z transition 396 → 287.

CD-1 male mice = details: for Mortality by 72 h: oral gavage, n = 10
Procedure: This analysis was critical for robustly comparing their toxic effects, with a particular focus on mortality at equivalent molar concentrations.
CD-1 male mice obtained from Charles River Laboratories underwent a one-week acclimation period. They were housed under a 12-h day/night cycle, with unrestricted access to food and water. Before experimentation, mice were fasted for 15 h. […] Each treatment group consisted of 10 mice. Post-dosing, the mice were monitored at 6-h intervals over 72 h for signs of becoming moribund. An investigator blinded to the treatment groups conducted the moribund state assessment.

dog = experiment: Maximum tolerated dose study, single dose (non-GLP); format: in vivo
Procedure: To determine the appropriate doses, maximum tolerated dose studies (non-GLP) were conducted prior to the definitive GLP systemic toxicity studies. SRP-001 was evaluated by a full battery of GLP-compliant toxicity studies. Systemic toxicity was evaluated in Sprague–Dawley rats and Beagle dogs by oral administration over 28 days (Supplementary Fig. 19 and Supplementary Table 2). Importantly, no treatment-related adverse effects were seen during 28 days of daily oral doses of SRP-001 in rats at doses up to 1500 mg/kg/day or in dogs at doses up to 330 mg/kg/day.

beagle dogs = experiment: Two-day oral dose toxicity and pharmacokinetic study (non-GLP); format: in vivo
Procedure: SRP-001 was supplied by Olon Ricerca Bioscience as an off-white powder and then prepared as dosing suspensions for oral administration via gavage (Calvert Labs/Altasciences, Scott Township, PA USA). Six experimentally non-naïve male Beagle dogs (3/dose), at least 7 months old and weighing 7.2 to 10.2 kg prior to treatment initiation, were administered 100 or 900 mg/kg/d SRP-001. Animals were dosed three times daily (3–5 h between doses) for 2 d. Mortality/morbidity was performed twice daily. On the day of dosing, animals were observed prior to each dose administration and approximately 1–3 h after each dose. Animals were also observed once on day 3. Body weights were recorded for all animals prior to the first dose administration on days 1 and 3, and food consumption was recorded daily. Blood for bioanalytical evaluation was collected at selected timepoints on day 1. Following the completion of the study, surviving animals were not euthanized and were returned to the Calvert colony. […]
Following a single administration of 900 mg SRP-001 oral suspension in the fed state, plasma concentrations of SRP-001 were observed from the first sampling time-point of 1 h post-dose for all subjects. […] In a two-day oral dose toxicity and pharmacokinetic (PK) study of […] in Beagle dogs, peak plasma concentrations of SRP-001 were detected within a 30-min to 1-h window post-administration. […]

[2] = Stability of API and oral nanosuspension; format: physicochemical
Procedure: The drug therapeutic candidate is manufactured in a two-step process (Latitude Pharmaceuticals, Inc., San Diego, CA, USA). First, SRP-001 is jet milled. Second, the milled API is dispersed in a solution comprising 1% hydroxypropyl cellulose (1% HPC) and sterile water for injection and subjected to wet milling. The target particle size is approximately D90 0.15 μm. […] An oral nanoparticle suspension containing 100 mg/mL SRP-001 in aqueous 1% HPC preserved with 0.1% sodium benzoate was manufactured for use in nonclinical studies as Lot LPI2021028 and stored at 5 °C ± 3 °C. […] The same formulation as above was manufactured under cGMP for use in clinical studies as Lot LPI2021031 and stored at 5 °C ± 3 °C. […] This lot has been placed on stability at 5 °C, 25 °C/60%RH, and 40 °C/75%RH. Finally, an appearance-matched placebo consisting of 2% microcrystalline cellulose in aqueous 1% HPC preserved with 0.1% sodium benzoate and 0.05% EDTA disodium dihydrate was manufactured under cGMP for use in clinical studies. The above oral suspensions were manufactured by Latitude Pharmaceuticals Inc. (San Diego, CA, USA).

SMILES	AM404 production in the periaqueductal gray region [1]	Mortality by 72 h (CD-1 male mice; 1984 (ApAP 300 mg/kg))	Mortality by 72 h (CD-1 male mice; 3969 (ApAP 600 mg/kg))	Mortality by 72 h (CD-1 male mice; 5954 (ApAP 900 mg/kg))	Mortality within 72 h (CD-1 male mice; increasing equimolar doses, highest mortality reached) [%]	Single doses that did not result in any mortality (dog) [mg/kg]	Dose tolerated (beagle dogs; 3 times daily for 2 days) [mg/kg/day]	Time of peak plasma concentrations post-administration (beagle dogs; dog, in vivo)	Stability of the API ([2]; 25 °C/60%RH)	Stability of the API ([2]; 40 °C/75%RH) [months]
CC(=O)Nc1ccc(O)cc1 [ApAP, acetaminophen, reference compound]	diminished	1/10	3/10	7/10	70	–	–	–	–	–
CCN(CC)C(=O)c1ccccc1S(=O)(=O)NCC(=O)Nc1ccc(O)cc1 [SRP-001, N,N-diethyl-2-[[2-(4-hydroxyanilino)-2-oxo-ethyl]sulfamoyl]benzamide]	–	–	–	–	–	≤ 1200	900	30-min to 1-h	at least 9 months	≥ 6
